Measurements as given in ChEMBL document CHEMBL5303763, “Data for DCP probe BI-3802” (2023).

Tests used:
[1] = molecular target: Zinc finger and BTB domain-containing protein 17 (Homo sapiens, UniProt Q13105); assay: SPR (ZBTB17), Ontario institute for cancer research
[2] = molecular target: Zinc finger and BTB domain-containing protein 32 (Homo sapiens, UniProt Q9Y2Y4); assay: SPR (ZBTB32), Ontario institute for cancer research
[3] = molecular target: Dual specificity mitogen-activated protein kinase kinase 1 (Homo sapiens) (UniProt Q02750); assay: MAP2K1 Invitrogen Lab (UK) kinase screen (BI); conditions: Compound concentration 1.0 uM
[4] = molecular target: Myosin light chain kinase 2, skeletal/cardiac muscle (Homo sapiens) (UniProt Q9H1R3); assay: MYLK2 Invitrogen Lab (UK) kinase screen (BI); conditions: Compound concentration 1.0 uM
[5] = molecular target: Beta-3 adrenergic receptor (Homo sapiens) (UniProt P13945); conditions: Compound concentration 10.0 uM
[6] = molecular target: GABA-A receptor; anion channel (Rattus norvegicus) (UniProt O09028+P15431+P18506+P18508+P19969+P20236+P23574+P23576+P28471+P28473+P30191+P62813+P63079+P63138+Q91ZM7+Q9ES14); conditions: Compound concentration 10.0 uM
[7] = molecular target: Platelet-derived growth factor receptor alpha (Homo sapiens) (UniProt P16234); assay: PDGFRA Invitrogen Lab (UK) kinase screen (BI); conditions: Compound concentration 1.0 uM
[8] = molecular target: Alpha-2C adrenergic receptor (Homo sapiens) (UniProt P18825); conditions: Compound concentration 10.0 uM
[9] = molecular target: Interleukin-1 receptor-associated kinase 4 (Homo sapiens) (UniProt Q9NWZ3); assay: IRAK4 Invitrogen Lab (UK) kinase screen (BI); conditions: Compound concentration 1.0 uM
[10] = molecular target: Glycogen synthase kinase-3 beta (Homo sapiens) (UniProt P49841); assay: GSK3B Invitrogen Lab (UK) kinase screen (BI); conditions: Compound concentration 1.0 uM
[11] = molecular target: Rho-associated protein kinase 2 (Homo sapiens) (UniProt O75116); assay: ROCK2 Invitrogen Lab (UK) kinase screen (BI); conditions: Compound concentration 1.0 uM
[12] = molecular target: T1, 5-hydroxytryptamine receptor 1A (Homo sapiens) (UniProt P08908); conditions: Compound concentration 10.0 uM
T1 sequence (whole entry): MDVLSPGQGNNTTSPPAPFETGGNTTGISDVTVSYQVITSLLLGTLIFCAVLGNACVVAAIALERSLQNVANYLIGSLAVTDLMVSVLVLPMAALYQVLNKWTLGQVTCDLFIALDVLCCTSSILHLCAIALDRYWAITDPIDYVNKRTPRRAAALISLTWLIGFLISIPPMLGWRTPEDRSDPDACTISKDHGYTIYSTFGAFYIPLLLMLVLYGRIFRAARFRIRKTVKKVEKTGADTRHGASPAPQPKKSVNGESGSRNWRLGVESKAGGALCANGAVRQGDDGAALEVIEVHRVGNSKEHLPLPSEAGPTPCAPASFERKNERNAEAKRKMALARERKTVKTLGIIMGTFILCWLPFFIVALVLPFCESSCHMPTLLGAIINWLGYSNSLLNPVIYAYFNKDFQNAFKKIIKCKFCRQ

[13] = molecular target: MAP kinase-activated protein kinase 2 (Homo sapiens) (UniProt P49137); assay: MAPKAPK2 Invitrogen Lab (UK) kinase screen (BI); conditions: Compound concentration 1.0 uM
[14] = molecular target: Serine/threonine-protein kinase PAK 4 (Homo sapiens) (UniProt O96013); assay: PAK4 Invitrogen Lab (UK) kinase screen (BI); conditions: Compound concentration 1.0 uM
[15] = molecular target: 5-hydroxytryptamine receptor 5A (Homo sapiens) (UniProt P47898); conditions: Compound concentration 10.0 uM
[16] = molecular target: Mu-type opioid receptor (Homo sapiens) (UniProt P35372); conditions: Compound concentration 10.0 uM
[17] = molecular target: Casein kinase I isoform alpha (Homo sapiens) (UniProt P48729); assay: CSNK1A1 Invitrogen Lab (UK) kinase screen (BI); conditions: Compound concentration 1.0 uM
[18] = molecular target: Dual specificity mitogen-activated protein kinase kinase 2 (Homo sapiens) (UniProt P36507); assay: MAP2K2 Invitrogen Lab (UK) kinase screen (BI); conditions: Compound concentration 1.0 uM
[19] = molecular target: Focal adhesion kinase 1 (Homo sapiens) (UniProt Q05397); assay: PTK2 Invitrogen Lab (UK) kinase screen (BI); conditions: Compound concentration 1.0 uM
[20] = molecular target: Serine/threonine-protein kinase PLK1 (Homo sapiens) (UniProt P53350); assay: PLK1 Invitrogen Lab (UK) kinase screen (BI); conditions: Compound concentration 1.0 uM
[21] = molecular target: 5-hydroxytryptamine receptor 1D (Homo sapiens) (UniProt P28221); conditions: Compound concentration 10.0 uM
[22] = molecular target: T2, Alpha-2A adrenergic receptor (Homo sapiens) (UniProt P08913); conditions: Compound concentration 10.0 uM
T2 sequence (whole entry): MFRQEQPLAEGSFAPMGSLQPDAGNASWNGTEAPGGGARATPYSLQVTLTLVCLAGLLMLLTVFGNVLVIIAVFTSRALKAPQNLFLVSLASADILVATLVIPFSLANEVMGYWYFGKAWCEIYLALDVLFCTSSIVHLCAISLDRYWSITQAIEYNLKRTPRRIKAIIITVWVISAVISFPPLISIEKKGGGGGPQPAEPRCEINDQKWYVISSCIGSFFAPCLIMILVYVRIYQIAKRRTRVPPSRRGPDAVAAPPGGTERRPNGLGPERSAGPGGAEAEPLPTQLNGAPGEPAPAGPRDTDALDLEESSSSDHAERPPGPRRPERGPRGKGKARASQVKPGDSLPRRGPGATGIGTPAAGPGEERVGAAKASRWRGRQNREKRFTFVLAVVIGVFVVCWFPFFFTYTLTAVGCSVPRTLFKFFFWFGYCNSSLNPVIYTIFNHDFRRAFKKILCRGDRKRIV

[23] = molecular target: Alpha-1B adrenergic receptor (Homo sapiens) (UniProt P35368); conditions: Compound concentration 10.0 uM
[24] = molecular target: Muscarinic acetylcholine receptor M3 (Homo sapiens) (UniProt P20309); conditions: Compound concentration 10.0 uM
[25] = molecular target: D(1B) dopamine receptor (Homo sapiens) (UniProt P21918); conditions: Compound concentration 10.0 uM
[26] = molecular target: 5-hydroxytryptamine receptor 7 (Homo sapiens) (UniProt P34969); conditions: Compound concentration 10.0 uM
[27] = molecular target: Histamine H1 receptor (Homo sapiens) (UniProt P35367); conditions: Compound concentration 10.0 uM
[28] = molecular target: Beta-2 adrenergic receptor (Homo sapiens) (UniProt P07550); conditions: Compound concentration 10.0 uM
[29] = molecular target: Histamine H3 receptor (Homo sapiens) (UniProt Q9Y5N1); conditions: Compound concentration 10.0 uM
[30] = molecular target: Serine/threonine-protein kinase Nek1 (Homo sapiens) (UniProt Q96PY6); assay: NEK1 Invitrogen Lab (UK) kinase screen (BI); conditions: Compound concentration 1.0 uM
[31] = molecular target: Alpha-1D adrenergic receptor (Homo sapiens) (UniProt P25100); conditions: Compound concentration 10.0 uM
[32] = molecular target: MAP kinase-activated protein kinase 3 (Homo sapiens) (UniProt Q16644); assay: MAPKAPK3 Invitrogen Lab (UK) kinase screen (BI); conditions: Compound concentration 1.0 uM

Chain of Alpha-1D adrenergic receptor (Homo sapiens) (P25100 whole entry): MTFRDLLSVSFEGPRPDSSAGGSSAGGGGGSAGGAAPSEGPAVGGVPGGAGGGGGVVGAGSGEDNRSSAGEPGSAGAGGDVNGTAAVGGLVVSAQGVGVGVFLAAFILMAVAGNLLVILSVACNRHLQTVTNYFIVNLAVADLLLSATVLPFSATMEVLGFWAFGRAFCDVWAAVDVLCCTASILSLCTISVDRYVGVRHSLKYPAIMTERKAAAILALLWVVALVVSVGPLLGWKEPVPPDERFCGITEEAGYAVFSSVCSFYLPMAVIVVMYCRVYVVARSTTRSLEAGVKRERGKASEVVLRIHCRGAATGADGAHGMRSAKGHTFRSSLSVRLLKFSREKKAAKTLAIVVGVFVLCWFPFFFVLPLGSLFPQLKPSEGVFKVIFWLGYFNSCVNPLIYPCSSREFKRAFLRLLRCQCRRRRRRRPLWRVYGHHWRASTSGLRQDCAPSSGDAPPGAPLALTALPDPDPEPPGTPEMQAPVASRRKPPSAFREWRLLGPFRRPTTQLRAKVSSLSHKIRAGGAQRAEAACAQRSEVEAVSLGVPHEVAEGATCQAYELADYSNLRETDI
Chain of Histamine H1 receptor (Homo sapiens) (P35367 whole entry): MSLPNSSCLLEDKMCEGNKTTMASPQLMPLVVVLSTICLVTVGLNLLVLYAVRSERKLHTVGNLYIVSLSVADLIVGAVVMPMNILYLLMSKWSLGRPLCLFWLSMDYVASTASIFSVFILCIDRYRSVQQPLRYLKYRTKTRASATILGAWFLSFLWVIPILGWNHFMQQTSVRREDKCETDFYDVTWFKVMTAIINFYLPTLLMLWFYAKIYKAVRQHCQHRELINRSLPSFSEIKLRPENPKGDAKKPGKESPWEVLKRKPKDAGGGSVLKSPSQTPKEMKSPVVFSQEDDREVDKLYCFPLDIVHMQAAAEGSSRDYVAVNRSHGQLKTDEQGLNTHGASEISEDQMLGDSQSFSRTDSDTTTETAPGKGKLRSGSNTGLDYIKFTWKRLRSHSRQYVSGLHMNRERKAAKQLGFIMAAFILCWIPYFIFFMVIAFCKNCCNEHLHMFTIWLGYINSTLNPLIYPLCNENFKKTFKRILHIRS
Chain of Mu-type opioid receptor (Homo sapiens) (P35372 whole entry, canonical isoform): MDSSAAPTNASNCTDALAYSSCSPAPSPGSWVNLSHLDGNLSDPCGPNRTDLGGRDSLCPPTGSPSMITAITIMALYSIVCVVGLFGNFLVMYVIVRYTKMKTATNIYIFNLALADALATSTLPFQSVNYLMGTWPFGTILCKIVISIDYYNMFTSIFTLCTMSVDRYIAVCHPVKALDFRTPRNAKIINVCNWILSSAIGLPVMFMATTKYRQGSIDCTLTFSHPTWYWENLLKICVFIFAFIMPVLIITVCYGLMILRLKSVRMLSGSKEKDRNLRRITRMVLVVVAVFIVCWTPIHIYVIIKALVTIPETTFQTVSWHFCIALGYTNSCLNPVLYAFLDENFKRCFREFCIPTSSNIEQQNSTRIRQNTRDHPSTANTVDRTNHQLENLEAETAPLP
Chain of Histamine H3 receptor (Homo sapiens) (Q9Y5N1 whole entry): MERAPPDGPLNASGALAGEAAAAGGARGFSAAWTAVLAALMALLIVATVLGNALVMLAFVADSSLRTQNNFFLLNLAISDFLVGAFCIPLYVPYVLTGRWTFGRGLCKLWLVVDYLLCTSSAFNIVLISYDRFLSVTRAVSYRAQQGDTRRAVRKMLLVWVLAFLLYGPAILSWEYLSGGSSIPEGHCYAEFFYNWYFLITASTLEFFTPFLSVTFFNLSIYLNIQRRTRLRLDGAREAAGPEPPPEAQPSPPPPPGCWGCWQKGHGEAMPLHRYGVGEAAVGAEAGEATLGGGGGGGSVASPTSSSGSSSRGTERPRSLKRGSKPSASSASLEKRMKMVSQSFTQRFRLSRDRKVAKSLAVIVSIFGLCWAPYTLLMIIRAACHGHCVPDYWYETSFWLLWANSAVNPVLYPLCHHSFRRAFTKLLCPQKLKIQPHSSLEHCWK
Chain of Beta-3 adrenergic receptor (Homo sapiens) (P13945 whole entry, looked up): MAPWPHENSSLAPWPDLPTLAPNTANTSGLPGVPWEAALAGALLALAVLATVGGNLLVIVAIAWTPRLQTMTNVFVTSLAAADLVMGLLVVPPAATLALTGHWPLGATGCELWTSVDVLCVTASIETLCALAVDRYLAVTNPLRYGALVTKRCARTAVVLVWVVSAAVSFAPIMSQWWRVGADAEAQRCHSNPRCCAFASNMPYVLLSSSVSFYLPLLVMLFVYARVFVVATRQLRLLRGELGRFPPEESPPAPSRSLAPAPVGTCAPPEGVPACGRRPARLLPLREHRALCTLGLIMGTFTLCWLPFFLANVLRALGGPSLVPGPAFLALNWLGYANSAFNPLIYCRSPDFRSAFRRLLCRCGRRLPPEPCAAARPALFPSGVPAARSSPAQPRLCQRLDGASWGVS
Chain of 5-hydroxytryptamine receptor 5A (Homo sapiens) (P47898 whole entry): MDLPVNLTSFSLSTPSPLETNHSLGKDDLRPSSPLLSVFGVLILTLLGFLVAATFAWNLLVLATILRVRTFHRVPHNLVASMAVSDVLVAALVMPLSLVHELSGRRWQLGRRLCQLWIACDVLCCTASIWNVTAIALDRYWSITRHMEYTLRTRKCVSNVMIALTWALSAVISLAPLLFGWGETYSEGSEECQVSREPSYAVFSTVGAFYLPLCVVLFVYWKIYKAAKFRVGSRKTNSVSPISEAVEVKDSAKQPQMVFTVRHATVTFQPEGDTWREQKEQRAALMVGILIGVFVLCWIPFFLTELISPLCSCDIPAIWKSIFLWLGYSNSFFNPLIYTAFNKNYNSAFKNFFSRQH
Chain of Alpha-1B adrenergic receptor (Homo sapiens) (P35368 whole entry): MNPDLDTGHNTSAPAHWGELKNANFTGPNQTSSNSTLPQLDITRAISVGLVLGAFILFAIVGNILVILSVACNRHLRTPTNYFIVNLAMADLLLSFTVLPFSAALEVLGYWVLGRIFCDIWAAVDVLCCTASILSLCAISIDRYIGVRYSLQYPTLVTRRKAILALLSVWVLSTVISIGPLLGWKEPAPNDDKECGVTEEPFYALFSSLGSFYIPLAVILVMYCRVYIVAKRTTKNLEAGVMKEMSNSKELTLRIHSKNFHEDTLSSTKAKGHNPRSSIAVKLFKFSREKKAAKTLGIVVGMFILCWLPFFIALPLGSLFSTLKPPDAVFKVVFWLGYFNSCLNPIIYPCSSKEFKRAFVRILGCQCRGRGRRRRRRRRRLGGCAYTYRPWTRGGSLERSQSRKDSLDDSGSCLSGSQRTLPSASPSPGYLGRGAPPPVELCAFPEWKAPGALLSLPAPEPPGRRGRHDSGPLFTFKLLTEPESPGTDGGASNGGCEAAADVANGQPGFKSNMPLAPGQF
Chain of Beta-2 adrenergic receptor (Homo sapiens) (P07550 whole entry, looked up): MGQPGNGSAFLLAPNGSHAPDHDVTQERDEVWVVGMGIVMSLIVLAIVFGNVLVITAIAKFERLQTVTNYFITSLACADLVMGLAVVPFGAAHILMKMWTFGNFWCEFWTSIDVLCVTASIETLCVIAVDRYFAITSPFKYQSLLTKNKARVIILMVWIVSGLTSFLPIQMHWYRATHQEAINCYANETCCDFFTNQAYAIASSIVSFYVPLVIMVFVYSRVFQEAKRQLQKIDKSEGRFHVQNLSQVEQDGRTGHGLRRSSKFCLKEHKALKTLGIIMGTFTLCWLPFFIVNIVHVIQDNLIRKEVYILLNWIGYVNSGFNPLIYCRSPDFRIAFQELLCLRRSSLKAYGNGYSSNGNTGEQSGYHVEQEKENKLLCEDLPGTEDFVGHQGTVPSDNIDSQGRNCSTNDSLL
Chain of D(1B) dopamine receptor (Homo sapiens) (P21918 whole entry): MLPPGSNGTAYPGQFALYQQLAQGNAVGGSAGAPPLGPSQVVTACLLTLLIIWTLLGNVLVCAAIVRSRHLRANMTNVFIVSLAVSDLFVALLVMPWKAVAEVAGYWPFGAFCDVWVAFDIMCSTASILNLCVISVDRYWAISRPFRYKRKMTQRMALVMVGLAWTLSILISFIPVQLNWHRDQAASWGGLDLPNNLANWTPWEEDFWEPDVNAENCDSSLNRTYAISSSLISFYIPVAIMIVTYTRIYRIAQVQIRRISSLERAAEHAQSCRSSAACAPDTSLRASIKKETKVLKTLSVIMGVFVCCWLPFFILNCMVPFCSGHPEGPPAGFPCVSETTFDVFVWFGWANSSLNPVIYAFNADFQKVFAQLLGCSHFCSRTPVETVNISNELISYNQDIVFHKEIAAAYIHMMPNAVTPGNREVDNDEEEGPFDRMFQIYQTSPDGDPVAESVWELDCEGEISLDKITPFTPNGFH
Chain of Muscarinic acetylcholine receptor M3 (Homo sapiens) (P20309 whole entry, looked up): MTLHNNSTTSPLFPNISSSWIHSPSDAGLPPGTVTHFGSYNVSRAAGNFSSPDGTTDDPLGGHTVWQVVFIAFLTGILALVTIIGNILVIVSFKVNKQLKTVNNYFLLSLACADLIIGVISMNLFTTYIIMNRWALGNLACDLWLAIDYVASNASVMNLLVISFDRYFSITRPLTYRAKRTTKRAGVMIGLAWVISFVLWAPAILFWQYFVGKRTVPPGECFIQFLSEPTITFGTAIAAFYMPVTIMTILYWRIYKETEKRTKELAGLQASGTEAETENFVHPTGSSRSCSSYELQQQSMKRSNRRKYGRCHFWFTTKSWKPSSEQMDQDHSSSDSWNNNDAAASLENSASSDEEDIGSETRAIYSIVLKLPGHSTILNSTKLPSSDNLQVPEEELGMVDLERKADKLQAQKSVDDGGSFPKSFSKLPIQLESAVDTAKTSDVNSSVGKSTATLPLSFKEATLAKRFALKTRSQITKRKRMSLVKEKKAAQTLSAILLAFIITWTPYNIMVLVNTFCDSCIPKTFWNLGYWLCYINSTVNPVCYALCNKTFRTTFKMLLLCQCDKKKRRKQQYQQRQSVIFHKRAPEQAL

C[C@@H]1C[C@H](C)CN(c2ncc(Cl)c(Nc3ccc4c(c3)cc(OC(C)(C)C(=O)O)c(=O)n4C)n2)C1
No binding: Kd [1] | Kd [2]

CNC(=O)COc1cc2cc(Nc3nc(N4C[C@H](C)C[C@H](C)C4)ncc3Cl)ccc2n(C)c1=O
inactive: residual activity [3] 71% | residual activity [4] 90% | inhibition [5] -4.02% | inhibition [6] 20.9% | residual activity [7] 102% | inhibition [8] 6.5% | residual activity [9] 90% | residual activity [10] 93% | residual activity [11] 100% | inhibition [12] 27% | residual activity [13] 102% | residual activity [14] 94% | inhibition [15] 0.2% | inhibition [16] 24.5% | residual activity [17] 93% | residual activity [18] 111% | residual activity [19] 106% | residual activity [20] 92% | inhibition [21] 13.7% | inhibition [22] 5.49% | inhibition [23] -0.36% | inhibition [24] -2.43% | inhibition [25] 1.96% | inhibition [26] 15.5% | inhibition [27] 6.31% | inhibition [28] -8.13% | inhibition [29] 12.7% | residual activity [30] 101% | inhibition [31] -7.81% | residual activity [32] 97%
